According to patent US10597388B2, “Pyridazinone herbicides” (FMC CORPORATION, priority 2014, dated 2020):

Key:
Format in all cases: in vivo
[1] = system: oat, wild (wild oat, Avena fatua); experiment: Test C greenhouse herbicide test, postemergence
Source text: (§1) At the same time, plants selected from these crop and weed species and also chickweed (common chickweed, Stellaria media), kochia (Kochia scoparia), and oat, wild (wild oat, Avena fatua), were planted in pots containing Redi-Earth® planting medium (Scotts Company, 14111 Scottslawn Road, Marysville, Ohio 43041) comprising spaghnum peat moss, vermiculite, wetting agent and starter nutrients and treated with postemergence applications of test chemicals formulated in the same manner. Plants ranged in height from 2 to 18 cm (1- to 4-leaf stage) for postemergence treatments. Treated plants and controls were maintained in a greenhouse for 13 to 15 d, after which time all species were compared to controls and visually evaluated. Plant response ratings, summarized in Table C, are based on a scale of 0 to 100 where 0 is no effect and 100 is complete control. A dash (-) response means no test result.

[2] = system: kochia (Kochia scoparia); experiment: Test C greenhouse herbicide test, postemergence
Source text: as §1

[3] = system: ragweed (common ragweed, Ambrosia elatior); experiment: Test A greenhouse herbicide test, pre- and postemergence
Procedure, shortened: (§2)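 Seeds sown in loam–sand blend got a preemergence directed soil spray of compound in non-phytotoxic solvent with surfactant. Postemergence treatment was given at 2–10 cm, one- to two-leaf stage. After ~10 d in greenhouse, injury was rated visually vs untreated controls, 0 (no effect) to 100 (complete control).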

[4] = system: foxtail, giant (giant foxtail, Setaria faberii); experiment: as above
Procedure, shortened: as §2

[5] = system: barnyardgrass (Echinochloa crus-galli); experiment: as above
Procedure, shortened: as §2

[6] = system: corn (Zea mays); experiment: as above; conditions: Postemergence
Procedure, shortened: as §2

[7] = system: pigweed (Amaranthus retroflexus); experiment: as above
Procedure, shortened: as §2

[8] = system: kochia (Kochia scoparia); experiment: as above
Procedure, shortened: as §2

[9] = system: wheat (Triticum aestivum); experiment: as above; conditions: Postemergence
Procedure, shortened: as §2

[10] = Postemergence, 31 g ai/ha, scale 0 to 100 (0 no effect, 100 complete control)
[11] = Postemergence, 62 g ai/ha, 0 to 100 scale (0 no effect, 100 complete control)
[12] = Postemergence, 250 g ai/ha, scale 0 to 100, 0 no effect, 100 complete control, 13 to 15 d
[13] = postemergence, 125 g ai/ha, scale 0 to 100, 0 no effect, 100 complete control
[14] = Postemergence, 125 g ai/ha, 0 to 100 scale where 0 is no effect and 100 is complete control
[15] = Postemergence, 500 g ai/ha, visual rating after approx. 10 d, 0 to 100 scale (0 no effect, 100 complete control)
[16] = Preemergence, 500 g ai/ha, 0 to 100 scale where 0 is no effect and 100 is complete control
[17] = Preemergence, 125 g ai/ha, 0 to 100 scale where 0 is no effect and 100 is complete control
[18] = 125 g ai/ha, 0 to 100 scale where 0 is no effect and 100 is complete control
[19] = 500 g ai/ha, visual rating after approx. 10 d, 0 to 100 scale (0 no effect, 100 complete control)

Structure (SMILES) | Plant response rating, Ragweed [3, 14] | Plant response rating, Ragweed [3, 15] | Plant response rating, Ragweed [3, 16] | Plant response rating, Foxtail, Giant [4, 14] | Plant response rating, Foxtail, Giant [4, 15] | Foxtail, Giant plant response rating [4, 17] | Plant response rating, Foxtail, Giant [4, 16] | Plant response rating, Barnyardgrass [5, 14] | Plant response rating, Barnyardgrass [5, 15] | Barnyardgrass plant response rating [5, 17] | Plant response rating, Barnyardgrass [5, 16] | Plant response rating, Corn [6, 18] | Plant response rating, Corn [6, 19] | Plant response rating, Pigweed [7, 14] | Plant response rating, Pigweed [7, 15] | Pigweed plant response rating [7, 17] | Plant response rating, Pigweed [7, 16] | Plant response rating, Kochia [8, 14] | Plant response rating, Kochia [8, 15] | Kochia plant response rating [8, 17] | further results
Cc1nn(C)c(=O)c(-c2ccc(Cl)c3ccccc23)c1O [Compound 139] | 100 | 100 | 100 | 70 | 100 | 60 | 100 | 20 | 100 | 20 | 100 | 30 | 40 | 60 | 100 | 100 | 100 | 100 | 100 | 100 | Plant response rating, Oat, Wild [1, 10]: 90; Oat, Wild plant response rating [1, 11]: 90; Plant response rating, Oat, Wild [1, 12]: 90; Oat, Wild plant response rating [1, 13]: 90; Plant response rating, Kochia [2, 10]: 95; Kochia plant response rating [2, 11]: 100; Plant response rating, Kochia [2, 12]: 100; Kochia plant response rating [2, 13]: 100; Plant response rating, Kochia [8, 16]: 100; Plant response rating, Wheat [9, 18]: 30; Plant response rating, Wheat [9, 19]: 30
CCC(=O)Oc1c(C)nn(C)c(=O)c1-c1ccc(Br)c2ccccc12 [Compound 134] | 100 | 100 | 90 | 20 | 80 | 50 | 90 | 20 | 60 | 20 | 90 | 20 | 50 | 90 | 100 | 100 | 100 | 100 | 100 | 70 | Plant response rating, Oat, Wild [1, 10]: 90; Oat, Wild plant response rating [1, 11]: 90; Plant response rating, Oat, Wild [1, 12]: 95; Oat, Wild plant response rating [1, 13]: 95; Plant response rating, Kochia [2, 10]: 95; Kochia plant response rating [2, 11]: 100; Plant response rating, Kochia [2, 12]: 100; Kochia plant response rating [2, 13]: 100; Ragweed plant response rating [3, 17]: 80; Plant response rating, Kochia [8, 16]: 100; Plant response rating, Wheat [9, 18]: 30; Plant response rating, Wheat [9, 19]: 30
CC(=O)Oc1c(Cl)nn(C)c(=O)c1-c1c(C)sc2ccc(Cl)cc12 [Compound 116] | 70 | 100 | 90 | 70 | 100 | 80 | 100 | 20 | 90 | 70 | 100 | 0 | 30 | 70 | 100 | 90 | 90 | 30 | 60 | 30 | Ragweed plant response rating [3, 17]: 90; Plant response rating, Kochia [8, 16]: 100; Plant response rating, Wheat [9, 18]: 20; Plant response rating, Wheat [9, 19]: 50
